ChEMBL document CHEMBL1201862, “PubChem BioAssay data set” (2004)
Calls of active or inactive are those of the source.

Legend:
[1] = molecular target: T1, Corticotropin-releasing factor receptor 2/Corticotropin-releasing factor-binding protein (Homo sapiens, UniProt P24387+Q13324); test: Dose Response confirmation of uHTS hits for small molecule antagonists of the CRF-binding protein and CRF-R2 receptor complex.; assay type: functional; conditions: read-out: IC50_Mean
T1 sequence (Q13324 whole entry): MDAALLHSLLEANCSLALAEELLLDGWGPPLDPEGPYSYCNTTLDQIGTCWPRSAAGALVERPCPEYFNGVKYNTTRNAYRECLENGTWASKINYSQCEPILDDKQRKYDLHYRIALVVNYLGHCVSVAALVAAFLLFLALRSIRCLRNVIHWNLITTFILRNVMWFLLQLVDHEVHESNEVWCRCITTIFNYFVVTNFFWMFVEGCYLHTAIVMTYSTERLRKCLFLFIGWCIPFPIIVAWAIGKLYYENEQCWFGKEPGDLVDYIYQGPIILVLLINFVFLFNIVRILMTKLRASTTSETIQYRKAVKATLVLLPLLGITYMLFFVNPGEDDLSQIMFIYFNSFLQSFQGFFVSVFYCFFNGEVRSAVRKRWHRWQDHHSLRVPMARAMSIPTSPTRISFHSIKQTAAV
T1 sequence (P24387 whole entry): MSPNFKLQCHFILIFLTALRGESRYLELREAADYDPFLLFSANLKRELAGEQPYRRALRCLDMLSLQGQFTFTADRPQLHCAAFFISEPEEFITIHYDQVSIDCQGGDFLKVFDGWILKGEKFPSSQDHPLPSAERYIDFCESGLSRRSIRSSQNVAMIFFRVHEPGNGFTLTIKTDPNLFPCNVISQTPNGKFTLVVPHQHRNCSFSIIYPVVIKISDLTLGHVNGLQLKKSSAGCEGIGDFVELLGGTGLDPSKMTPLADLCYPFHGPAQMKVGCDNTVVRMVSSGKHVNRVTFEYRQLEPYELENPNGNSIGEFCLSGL

[2] = molecular target: T1, Corticotropin-releasing factor receptor 2/Corticotropin-releasing factor-binding protein; test: activators of CRF receptor 2 with binding protein – uHTS hits, confirmation (AID 602473); assay type: functional; conditions: read-out: EC50_Mean
[3] = A Cell Based Secondary Assay To Explore Cytotoxicity of Compounds that Sensitize Mycobacterium Tuberculosis to Beta-Lactam Antibiotics.; assay type: functional
Cytochrome P450 2C9 = Cytochrome P450 2C9 (Homo sapiens, UniProt P11712)
Sequence of Cytochrome P450 2C9 (P11712 whole entry): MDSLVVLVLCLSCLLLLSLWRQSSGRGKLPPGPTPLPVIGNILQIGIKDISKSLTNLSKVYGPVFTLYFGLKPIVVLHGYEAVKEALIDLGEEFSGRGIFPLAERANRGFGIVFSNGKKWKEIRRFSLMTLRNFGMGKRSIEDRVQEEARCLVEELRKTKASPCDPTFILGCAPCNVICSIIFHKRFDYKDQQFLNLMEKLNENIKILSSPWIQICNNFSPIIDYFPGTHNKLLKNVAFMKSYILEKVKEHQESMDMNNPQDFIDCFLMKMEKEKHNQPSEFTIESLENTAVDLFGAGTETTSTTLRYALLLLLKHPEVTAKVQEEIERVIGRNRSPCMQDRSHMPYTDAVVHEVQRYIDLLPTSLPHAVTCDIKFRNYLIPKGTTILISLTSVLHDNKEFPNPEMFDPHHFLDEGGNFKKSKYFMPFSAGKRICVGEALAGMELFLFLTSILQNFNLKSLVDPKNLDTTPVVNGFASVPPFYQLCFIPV

[4] = molecular target: G-protein coupled receptor 55 (Homo sapiens, UniProt Q9Y2T6); test: GPR55 agonists via beta-arrestin recruitment, primary screen, imaging, U2OS cells, beta-arrestin-GFP redistribution (AID 1961); assay type: functional
Sequence of G-protein coupled receptor 55 (Q9Y2T6 whole entry): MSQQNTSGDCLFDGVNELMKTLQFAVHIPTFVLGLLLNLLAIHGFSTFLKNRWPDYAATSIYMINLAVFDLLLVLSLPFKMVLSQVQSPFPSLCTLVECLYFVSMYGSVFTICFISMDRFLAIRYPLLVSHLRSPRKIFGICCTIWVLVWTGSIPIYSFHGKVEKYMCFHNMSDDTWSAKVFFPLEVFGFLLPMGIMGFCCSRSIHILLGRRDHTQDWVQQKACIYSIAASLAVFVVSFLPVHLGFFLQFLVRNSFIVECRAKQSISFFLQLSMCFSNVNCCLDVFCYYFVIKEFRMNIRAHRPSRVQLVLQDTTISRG

HEK293 [5] = test: NOD2 signaling inhibitors in MDP-stimulated cells, cell-based, uHTS, luminescence (AID 2001); assay type: functional; conditions: Homo sapiens
HEK293 [6] = test: cells; assay type: functional, cell-based; conditions: Homo sapiens
HEK293 [7] = test: NOD1 signaling inhibitors, primary screen, cell-based, luminescence, uHTS (AID 1578); assay type: functional; conditions: Homo sapiens
HEK293 [8] = test: cells; assay type: functional, cell-based; conditions: Homo sapiens; remark: listed apart in the source
[9] = molecular target: Nucleotide-binding oligomerization domain-containing protein 2 (Homo sapiens, UniProt Q9HC29); test: NOD2 signaling inhibitors, cell-based, luminescence, uHTS, HEK293 (AID 1566); assay type: functional
Sequence of Nucleotide-binding oligomerization domain-containing protein 2 (Q9HC29 whole entry, the tested form may be a part): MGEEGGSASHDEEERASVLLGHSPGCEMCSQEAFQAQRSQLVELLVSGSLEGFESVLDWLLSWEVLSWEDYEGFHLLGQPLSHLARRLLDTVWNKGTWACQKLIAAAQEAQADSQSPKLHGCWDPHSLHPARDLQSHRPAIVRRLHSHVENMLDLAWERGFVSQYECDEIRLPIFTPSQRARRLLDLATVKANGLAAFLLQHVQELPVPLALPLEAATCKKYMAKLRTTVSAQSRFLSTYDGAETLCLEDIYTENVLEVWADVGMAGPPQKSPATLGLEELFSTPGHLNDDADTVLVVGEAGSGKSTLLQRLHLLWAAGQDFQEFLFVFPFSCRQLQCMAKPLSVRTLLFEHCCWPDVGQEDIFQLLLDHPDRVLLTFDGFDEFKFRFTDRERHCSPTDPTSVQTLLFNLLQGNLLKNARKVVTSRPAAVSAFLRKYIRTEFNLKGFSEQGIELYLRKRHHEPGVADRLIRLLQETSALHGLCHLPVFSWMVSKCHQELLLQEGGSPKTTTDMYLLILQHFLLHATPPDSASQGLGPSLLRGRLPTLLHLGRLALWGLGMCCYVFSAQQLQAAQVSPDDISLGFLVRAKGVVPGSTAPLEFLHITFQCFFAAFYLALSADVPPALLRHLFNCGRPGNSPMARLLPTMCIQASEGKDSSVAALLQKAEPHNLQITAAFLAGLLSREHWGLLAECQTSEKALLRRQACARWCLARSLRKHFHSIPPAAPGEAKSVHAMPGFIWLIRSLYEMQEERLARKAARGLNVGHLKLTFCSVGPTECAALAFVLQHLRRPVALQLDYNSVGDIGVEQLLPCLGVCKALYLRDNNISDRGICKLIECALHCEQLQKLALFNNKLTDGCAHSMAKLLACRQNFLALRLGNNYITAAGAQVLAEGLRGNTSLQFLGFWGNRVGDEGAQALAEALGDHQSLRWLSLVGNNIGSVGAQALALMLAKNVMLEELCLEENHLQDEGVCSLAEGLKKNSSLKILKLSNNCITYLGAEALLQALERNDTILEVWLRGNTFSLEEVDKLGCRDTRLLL

HEK293 [10] = test: cells; assay type: functional, cell-based; conditions: Homo sapiens; remark: listed apart in the source
Estrogen receptor beta [11] = molecular target: T2, Estrogen receptor beta (Homo sapiens, UniProt Q92731); test: ERβ–SRC-3 coactivator interaction inhibitors, confirmation, orthogonal assay, biochemical, ELISA, streptavidin-HRP readout (AID 1060)
T2 sequence (Q92731 whole entry): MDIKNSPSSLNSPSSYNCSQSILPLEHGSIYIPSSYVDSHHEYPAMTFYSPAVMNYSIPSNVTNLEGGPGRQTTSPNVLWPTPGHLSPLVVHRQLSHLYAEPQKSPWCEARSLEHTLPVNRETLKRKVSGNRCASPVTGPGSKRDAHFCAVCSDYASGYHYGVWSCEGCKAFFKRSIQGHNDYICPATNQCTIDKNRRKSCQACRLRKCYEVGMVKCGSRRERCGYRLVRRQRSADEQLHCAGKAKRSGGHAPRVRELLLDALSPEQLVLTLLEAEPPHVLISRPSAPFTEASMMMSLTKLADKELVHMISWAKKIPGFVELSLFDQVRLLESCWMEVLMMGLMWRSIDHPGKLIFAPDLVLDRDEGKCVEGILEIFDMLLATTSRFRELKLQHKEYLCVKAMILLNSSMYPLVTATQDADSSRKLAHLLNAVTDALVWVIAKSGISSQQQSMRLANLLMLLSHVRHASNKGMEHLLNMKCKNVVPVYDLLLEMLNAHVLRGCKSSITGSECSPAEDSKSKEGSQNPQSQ

Estrogen receptor beta [12] = molecular target: T2, Estrogen receptor beta
Estrogen receptor = molecular target: T3, Estrogen receptor (Homo sapiens, UniProt P03372);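 further: potency for inhibiting coactivator peptide recruitment to the receptor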
T3 sequence (P03372 whole entry): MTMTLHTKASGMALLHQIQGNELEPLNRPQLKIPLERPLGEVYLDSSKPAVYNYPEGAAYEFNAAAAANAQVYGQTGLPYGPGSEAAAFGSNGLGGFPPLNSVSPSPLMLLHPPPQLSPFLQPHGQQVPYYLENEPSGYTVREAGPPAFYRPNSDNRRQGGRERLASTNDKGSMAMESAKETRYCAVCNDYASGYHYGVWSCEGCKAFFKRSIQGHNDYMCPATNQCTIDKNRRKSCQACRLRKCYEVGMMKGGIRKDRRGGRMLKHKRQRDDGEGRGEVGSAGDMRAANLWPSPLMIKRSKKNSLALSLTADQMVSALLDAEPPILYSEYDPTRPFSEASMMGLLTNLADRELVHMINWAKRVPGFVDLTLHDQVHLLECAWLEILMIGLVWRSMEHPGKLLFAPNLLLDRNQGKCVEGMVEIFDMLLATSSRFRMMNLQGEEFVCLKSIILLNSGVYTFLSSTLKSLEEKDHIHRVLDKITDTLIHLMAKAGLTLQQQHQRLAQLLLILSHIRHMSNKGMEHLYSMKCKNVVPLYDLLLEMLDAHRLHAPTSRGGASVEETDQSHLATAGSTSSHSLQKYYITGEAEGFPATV

[13] = THP-1 cell cytotoxicity, dose response, cytotoxicity control for Vif-APOBEC3G degradation inhibitor project, THP-1 cells (AID 1117359); assay type: functional; conditions: Human immunodeficiency virus 1, THP-1

**Q.** With Cc1cc2c(N=NC(=O)C3CC3c3ccccc3)c(O)[nH]c2cc1Br (configuration not stated) as the compound, how does the IC50 [1] read?
**A.** > 47.1 µM (inactive)

**Q.** And the EC50 [2]?
**A.** > 53 µM (inactive)

**Q.** And the CC50 [3]?
**A.** 32.8 µM (active)

**Q.** Which AC50 (Cytochrome P450 2C9) does the source give for O=C(CSc1nc2ccccc2o1)N1c2ccccc2Sc2ccc(Cl)cc21 here?
**A.** 3.16 µM (inconclusive)

**Q.** What about the EC50 [4] of the same compound?
**A.** > 32 µM (inactive)

**Q.** Which IC50 (HEK293 [5]) does the source give for O=C(Nc1cccc(Br)c1)c1ccc(Cl)c(S(=O)(=O)N2CCOCC2)c1 here?
**A.** 3.44 µM (active)

**Q.** And the IC50 (HEK293 [6])?
**A.** 6.44 µM (active)

**Q.** And the EC50 (HEK293 [7])?
**A.** 10.3 µM (active)

**Q.** What about the IC50 (HEK293 [8]) of the same compound?
**A.** > 20 µM (inactive)

**Q.** What about the EC50 [9] of the same compound?
**A.** > 20 µM (inactive)

**Q.** What about the IC50 (HEK293 [10]) of the same compound?
**A.** 2.87 µM (active)

**Q.** For O=CN1CCN(c2ncnc3c2nnn3Cc2c(F)cccc2Cl)CC1, which EC50 [4] is on record?
**A.** 12.7 µM (inactive)

**Q.** For C=CCn1c(SCC(=O)NC(=O)NCc2ccco2)nc2sc(CC)cc2c1=O, which IC50 (Estrogen receptor beta [11]) is on record?
**A.** 31.7 nM (not active)

**Q.** What about the IC50 (Estrogen receptor beta [12]) of the same compound?
**A.** 13.6 µM (active)

**Q.** What about the IC50 (Estrogen receptor) of the same compound?
**A.** 10.1 µM (active)

**Q.** Which results are given for COc1cccc(/C=N/NC(=O)c2cnccn2)c1O?
**A.** CC50 [13]: > 40 µM (active); CC50 [3]: > 40 µM (active)
